Source: patent US20050238580A1 (priority 2002, published 2005)

Tests used:
[1] = biological target: T1, intestinal lactase (Rattus norvegicus, UniProt Q02401); assay: Excretion of xylose in urine after oral 4-galactosyl-xylose versus intestinal lactase activity in unweaned rats; type: in vivo
T1 construct: hydrolysis of the 4-galactosyl-xylose administered is detected by the action of intestinal lactase; from tissue; host or cells: small-intestinal mucous membrane of living unweaned rats (in vivo); activity also measured post mortem in mucosa homogenate
T1 sequence (Q02401 868-1928): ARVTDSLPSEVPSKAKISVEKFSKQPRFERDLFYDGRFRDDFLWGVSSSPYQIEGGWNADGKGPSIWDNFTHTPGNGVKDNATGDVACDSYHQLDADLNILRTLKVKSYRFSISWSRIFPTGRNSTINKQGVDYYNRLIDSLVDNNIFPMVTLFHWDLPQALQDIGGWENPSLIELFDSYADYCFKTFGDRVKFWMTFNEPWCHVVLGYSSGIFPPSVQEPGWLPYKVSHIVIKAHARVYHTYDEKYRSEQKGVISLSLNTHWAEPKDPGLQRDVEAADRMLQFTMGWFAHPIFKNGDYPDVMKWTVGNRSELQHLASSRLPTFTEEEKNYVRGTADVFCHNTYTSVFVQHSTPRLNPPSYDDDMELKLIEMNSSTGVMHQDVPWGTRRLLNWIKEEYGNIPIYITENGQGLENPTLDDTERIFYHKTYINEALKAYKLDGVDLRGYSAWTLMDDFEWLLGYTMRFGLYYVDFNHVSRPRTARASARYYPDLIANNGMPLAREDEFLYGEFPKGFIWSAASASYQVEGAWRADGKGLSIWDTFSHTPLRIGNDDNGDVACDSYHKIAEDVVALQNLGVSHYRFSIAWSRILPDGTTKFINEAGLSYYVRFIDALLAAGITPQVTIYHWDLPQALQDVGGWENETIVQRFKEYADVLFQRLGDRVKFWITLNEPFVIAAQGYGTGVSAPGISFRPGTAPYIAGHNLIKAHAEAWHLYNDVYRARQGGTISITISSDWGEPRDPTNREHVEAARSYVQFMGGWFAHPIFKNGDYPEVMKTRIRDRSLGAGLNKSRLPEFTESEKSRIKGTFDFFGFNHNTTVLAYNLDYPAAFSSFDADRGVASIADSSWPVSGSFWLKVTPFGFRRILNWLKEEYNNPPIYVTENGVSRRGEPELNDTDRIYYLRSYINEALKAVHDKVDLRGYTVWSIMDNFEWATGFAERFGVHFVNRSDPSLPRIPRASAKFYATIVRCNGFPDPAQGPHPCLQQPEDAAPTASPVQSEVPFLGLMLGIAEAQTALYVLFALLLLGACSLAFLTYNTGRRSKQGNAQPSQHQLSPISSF
Source text: Correlation between the excretion of xylose in urine and the presence of xylose in blood after oral administration of 4-galactosyl-xylose with intestinal lactase activity. This has been shown in unweaned rats comparing during the growth of these animals, the excretion of xylose in urine after orally administering to them 4-galactosyl-xylose, with lactase activity evaluated postmortem in the intestinal mucous membrane, which is known to physiologically reduce during growth. For this purpose, a group comprised of 20 12-day old unweaned rats belonging to two litters fasted for 6 hours by being separated from the mother. […] Immediately after the urine has been collected, four of the animals were sacrificed and the lactase activity in the intestinal mucous membrane was directly evaluated. […] The lactase activity in the homogenized product was measured spectrophotometrically. […] Therein one can see: 1) That the presence of xylose in urine coming from the hydrolysis of the 4-galactosyl-xylose administered is detected by the action of intestinal lactase; 2) That the rate of excretion of xylose in urine caused by oral administration of 4-galactosyl-xylose during the growth of the animals, runs parallel to the known physiological modification of intestinal lactase activity that reduces during growth. […]

[2] = Gastrointestinal tolerability of the oral intake of 4-galactosyl-xylose in adult human volunteers; type: in vivo

OCC1O[C@@H](O[C@@H]2COC(O)C(O)[C@H]2O)C(O)[C@@H](O)[C@H]1O (some centres unmarked)
linear correlation coefficient (r) between excretion of xylose in urine and intestinal lactase activity ([1]; unweaned rats aged 12 to 35 days, 4 mg oral, urine of 6 hours, lactase evaluated postmortem in intestinal mucous membrane): 0.96
dose dependence of excretion of xylose in urine ([1]; unweaned rats, oral doses from 2 to 32 mg in 0.3 ml of water): increases with the increase of the amount of 4-galactosyl-xylose administered
gastrointestinal discomfort or disorders ([2]; 8 adult volunteers with lactose tolerance, 0.25 g oral): did not cause any gastrointestinal discomfort or disorder
gastrointestinal discomfort or disorders ([2]; individual 1 with lactose tolerance, 1 g oral): did not cause any gastrointestinal discomfort or disorders
gastrointestinal discomfort or disorders ([2]; individual 12 with lactose intolerance and two individuals with lactose tolerance, 3 g oral): did not result in any gastrointestinal discomfort or disorder
gastrointestinal discomfort or disorders ([2]; individual 13, allergy to milk components, 0.25 g oral): did not cause any gastrointestinal discomfort or disorder
gastrointestinal discomfort or disorders ([2]; individuals 1 and 2 with lactose tolerance, 0.25 g, 0.5 g and 3 g oral): did not cause any gastrointestinal discomfort or any disorder
gastrointestinal discomfort or disorders ([2]; individuals 12 and 5 with lactose intolerance, 0.25 g oral): did not cause any gastrointestinal discomfort or disorders
